Drawing on patent US9890152B2 (Genentech, Inc., priority 2012, dated 2018), this text covers Ki for 36 molecules.

Values joined by “and” are separate entries in the source; they are usually repeats but may differ in a detail not shown here. Equal entries are not always repeated.

In this assay the target is T1, EGFR del746-750 T790M (Homo sapiens, UniProt P00533, DEL746-750/T790M).
T1 construct: purchased Carna Biosciences 08-528
T1 sequence (P00533 with tags, fused parts or gaps DEL746-750/T790M limits assumed): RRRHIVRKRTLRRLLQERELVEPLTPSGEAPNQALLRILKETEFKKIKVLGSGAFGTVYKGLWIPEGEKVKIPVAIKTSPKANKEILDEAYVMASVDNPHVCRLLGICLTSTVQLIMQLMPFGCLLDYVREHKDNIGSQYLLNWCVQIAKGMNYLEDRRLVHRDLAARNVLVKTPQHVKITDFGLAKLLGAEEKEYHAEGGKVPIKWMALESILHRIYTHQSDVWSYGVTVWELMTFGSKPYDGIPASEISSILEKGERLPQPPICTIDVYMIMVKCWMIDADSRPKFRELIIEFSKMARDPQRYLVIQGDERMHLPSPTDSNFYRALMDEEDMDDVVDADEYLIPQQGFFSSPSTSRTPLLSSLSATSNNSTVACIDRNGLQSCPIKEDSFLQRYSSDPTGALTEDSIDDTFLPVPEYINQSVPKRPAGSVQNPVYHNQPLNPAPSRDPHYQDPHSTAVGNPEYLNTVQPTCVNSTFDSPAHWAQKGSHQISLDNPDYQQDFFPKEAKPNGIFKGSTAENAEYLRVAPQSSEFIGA
Briefly: EGFR del746-750 T790M biochemical assay (Caliper mobility shift). The note with it: 5 μM ATP, 30 min, room temperature; apparent Ki (Morrison) converted by Cheng-Prusoff, Km of ATP 2.1 μM; read-out: EGFR(T790M/d746-750) Ki.
On to `Cc1cn[nH]c1-c1cn(C(C)C)c2cc(Nc3ccnc(-c4cnn(S(=O)(=O)C5CC5)c4)n3)ncc12` [Example 346, N-(2-(1-(cyclopropylsulfonyl)-1H-pyrazol-4-yl)pyrimidin-4-yl)-1-isopropyl-3-(4-methyl-1H-pyrazol-5-yl)-1H-pyrrolo[3,2-c]pyridin-6-amine], for which the Ki is 0.00307 µM.
The result for `CC(C)n1cnc2cnc(Nc3ccnc(N4CCc5[nH]ncc5C4)n3)cc21` [Example 12, (1-Isopropyl-1H-imidazo[4,5-c]pyridin-6-yl)-[2-(1,4,6,7-tetrahydropyrazolo[4,3-c]pyridin-5-yl)pyrimidin-4-yl]amine] reads 0.0192 µM; that for `O=C1CC(n2c(CO)nc3cnc(Nc4ccnc(-c5cnn(S(=O)(=O)C6CC6)c5)n4)cc32)CN1` (stereo not drawn) [Example 694], 0.709 µM; that for `C[C@H](n1c([C@@H](C)O)nc2cnc(Nc3ccnc(N4CCC(S(C)(=O)=O)CC4)n3)cc21)C(F)(F)F` [Example 662], 0.0684 µM.
As for `CC(C)n1c(CO)nc2cnc(Nc3ccnc(N4C[C@@H](F)[C@@H](O)C(C)(C)C4)n3)cc21` [Example 650], the figure is 0.092 µM and 0.02 µM.
`CO[C@@H]1CCN(c2nccc(Nc3cc4c(cn3)c(C(=O)NC3CCOCC3)cn4C(C)C)n2)C[C@@H]1F` [Example 380, 6-((2-((3S,4R)-3-fluoro-4-methoxypiperidin-1-yl)pyrimidin-4-yl)amino)-1-isopropyl-N-(tetrahydro-2H-pyran-4-yl)-1H-pyrrolo [3,2-c]pyridine-3-carboxamide]: the Ki worked out at 0.00696 µM.
Take `CCC(C)n1cc(C(=O)NC2CCCOC2)c2cnc(Nc3ccnc(N4CCC(O)C(C)(C)C4)n3)cc21` (stereo not drawn) [Example 374, 1-(sec-butyl)-6-((2-(4-hydroxy-3,3-dimethylpiperidin-1-yl)pyrimidin-4-yl)amino)-N-(tetrahydro-2H-pyran-3-yl)-lH-pyrrolo[3,2-c]pyridine-3-carboxamide]: the Ki stood at 0.00331 µM.
In the case of `CO[C@H]1CCN(c2nccc(Nc3cc4c(cn3)c(C(=O)NC3CCOCC3)cn4C(C)C)n2)C[C@H]1F` [Example 381, 6-((2-((3R,4S)-3-fluoro-4-methoxypiperidin-1-yl)pyrimidin-4-yl)amino)-1-isopropyl-N-(tetrahydro-2H-pyran-4-yl)-1H-pyrrolo [3,2-c]pyridine-3-carboxamide], the Ki is 0.00929 µM.
As to `Cc1nc2cnc(Nc3ccnc(-n4ccnc4)n3)cc2n1C(C)C` [Example 599, (2-Imidazol-1-ylpyrimidin-4-yl)-(1-isopropyl-2-methyl-1H-imidazo[4,5-c]pyridin-6-yl)amine], the Ki came to 0.0275 µM.
For the molecule `CO[C@H]1CN(c2nccc(Nc3cc4c(cn3)nc(C)n4C(C)C)n2)CC[C@@H]1O` (racemic) [Example 509, (±)-1-(4-((1-Isopropyl-2-methyl-1H-imidazo[4,5-c]pyridin-6-yl)amino)pyrimidin-2-yl)-3-methoxypiperidin-4-ol], the Ki is 0.348 µM.
As for `CCC(C)n1cc(C(=O)NC2CCOCC2)c2cnc(Nc3ccnc(N4CC[C@@H](OC)[C@@H](F)C4)n3)cc21` (single isomer, unassigned) [Example 375], the Ki worked out at 0.00341 µM.
With `Cc1nc2cnc(Nc3ccnc(N4Cc5cn[nH]c5C(C)(C)C4)n3)cc2n1C(C)C` [Example 111, N-(2-(7,7-dimethyl-6,7-dihydro-1H-pyrazolo[4,3-c]pyridin-5(4H)-yl)pyrimidin-4-yl)-1-isopropyl-2-methyl-1H-imidazo[4,5-c]pyridin-6-amine], the Ki was 0.0189 µM.
`CC[C@@H](C)n1c([C@@H](C)O)nc2cnc(Nc3ccnc(-c4cnn(S(=O)(=O)CC)c4)n3)cc21` [Example 281, (R)-1-{1-((R)-sec-Butyl)-6-[2-(1-ethanesulfonyl-1H-pyrazol-4-yl)-pyrimidin-4-ylamino]-1H-imidazo[4,5-c]pyridin-2-yl}ethanol]: the Ki came out at 0.00237 µM.
In the case of `CC(C)n1c(CO)nc2cnc(Nc3ccnc(N4C[C@@H]5C[C@H]4CO5)n3)cc21` [Example 691], the Ki was 0.736 µM.
As for `CO[C@H]1[C@@H]2CC[C@H]1CN(c1nccc(Nc3cc4c(cn3)nc(CO)n4C(C)C)n1)C2` [Example 273, (1-Isopropyl-6-((2-((1R,5R,8r)-8-methoxy-3-azabicyclo[3.2.1]octan-3-yl)pyrimidin-4-yl)amino)-1H-imidazo[4,5-c]pyridin-2-yl)methanol], the figure is 0.0237 µM; as for `CO[C@H]1CCN(c2nccc(Nc3cc4c(cn3)nc(CO)n4C(C)C)n2)C[C@H]1C(F)(F)F` (racemic) [Example 628, (1-Isopropyl-6-(2-((±)-(cis)-4-methoxy-3-(trifluoromethyl)piperidin-1-yl)pyrimidin-4-ylamino)-1H-imidazo[4,5-c]pyridin-2-yl)methanol], 1.19 µM.
As for `Cc1nc2cnc(Nc3ccnc(-c4cnn(S(=O)(=O)N(C)C)c4)n3)cc2n1C(C)C` [Example 397, 4-(4-((1-isopropyl-2-methyl-1H-imidazo[4,5-c]pyridin-6-yl)amino)pyrimidin-2-yl)-N,N-dimethyl-1H-pyrazole-1-sulfonamide], the figure is 0.0145 µM; as for `CS[C@H]1CCN(c2nccc(Nc3cc4c(cn3)nc(C)n4C(C)C)n2)C[C@H]1F` (racemic) [Example 617, [2-(±)-(cis-3-Fluoro-4-methylsulfanylpiperidin-1-yl)pyrimidin-4-yl]-(1-isopropyl-2-methyl-1H-imidazo[4,5-c]pyridin-6-yl)amine], 0.115 µM.
With `CC(C)n1c(CO)nc2cnc(Nc3ccnc(N4CCCCC4CO)n3)cc21` (stereo not drawn) [Example 670], the Ki was 0.273 µM.
For the molecule `C[C@H](n1c([C@@H](C)O)nc2cnc(Nc3ccnc(N4C[C@@H](F)[C@@H](O)[C@@H](F)C4)n3)cc21)C(F)(F)F` [Example 701], the Ki is 0.0044 µM.
For the molecule `CC(C)n1c(CO)nc2cnc(Nc3ccnc(N4CCC5(CC4)CNC(=O)CO5)n3)cc21` [Example 693], the Ki came out at 0.572 µM.
Regarding `C[C@H](O)c1nc2cnc(Nc3ccnc(N4CC[C@@H](O)[C@@H](F)C4)n3)cc2n1[C@H](C)C(F)(F)F` [Example 689], the Ki came to 0.23 µM.
As to `COC[C@H](C)n1c(C)nc2cnc(Nc3ccnc(N4CCC(OC)CC4)n3)cc21` [Example 490, [1-((S)-2-Methoxy-1-methylethyl)-2-methyl-1H-imidazo [4,5-c]pyridin-6-yl]-[2-(4-methoxypiperidin-1-yl)pyrimidin-4-yl]amine], the Ki was 0.746 µM.
As for `COC1CCN(c2nccc(Nc3cc4c(cn3)c(C(=O)NC(C)C)cn4C(C)C)n2)CC1` [Example 120, N,1-diisopropyl-6-((2-(4-methoxypiperidin-1-yl)pyrimidin-4-yl)amino)-1H-pyrrolo[3,2-c]pyridine-3-carboxamide], the figure is 0.0102 µM; as for `CC(C)n1cc(C(=O)N[C@@H]2CCN(C3COC3)C[C@@H]2F)c2cnc(Nc3ccnc(-c4cnn(S(=O)(=O)C5CC5)c4)n3)cc21` (racemic) [Example 372, (±)-6-((2-(1-(cyclopropylsulfonyl)-1H-pyrazol-4-yl)pyrimidin-4-yl)amino)-N-((cis)-3-fluoro-1-(oxetan-3-yl)piperidin-4-yl)-1-isopropyl-1H-pyrrolo[3,2-c]pyridine-3-carboxamide], 0.00108 µM.
As for `CC(C)n1cnc2cnc(Nc3ccnc(-c4cnn(S(=O)(=O)C5CC5)c4)n3)cc21` [Example 97, N-(2-(1-(cyclopropylsulfonyl)-1H-pyrazol-4-yl)pyrimidin-4-yl)-1-isopropyl-1H-imidazo[4,5-c]pyridin-6-amine], the Ki amounted to 0.0019 µM.
Turning to `Cc1nc2cnc(Nc3ccnc(N4CC[C@H](O)C[C@@H]4C)n3)cc2n1C(C)C` [Example 600], the Ki came to 0.0758 µM.
With `Cc1nc2cnc(Nc3ccnc(-c4cnn(C)c4)n3)cc2n1C(C)C` [Example 365, 1-Isopropyl-2-methyl-N-(2-(1-methyl-1H-pyrazol-4-yl)pyrimidin-4-yl)-1H-imidazo[4,5-c]pyridin-6-amine], the Ki stood at 0.0465 µM.
`CC(C)n1cc(C(=O)NC2COC2)c2cnc(Nc3ccnc(-c4cnn(S(=O)(=O)N5CCCC5)c4)n3)cc21` [Example 388, 1-isopropyl-N-(oxetan-3-yl)-6-((2-(1-(pyrrolidin-1-ylsulfonyl)-1H-pyrazol-4-yl)pyrimidin-4-yl)amino)-1H-pyrrolo[3,2-c]pyridine-3-carboxamide]: the Ki was found to be 0.029 µM.
Consider `Cc1nc2cnc(Nc3ccnc(N4CC[C@@H](S(C)(=O)=O)[C@H](F)C4)n3)cc2n1C(C)C` (racemic) [Example 616, [2-(±)-(trans-3-Fluoro-4-methanesulfonylpiperidin-1-yl)pyrimidin-4-yl]-(1-isopropyl-2-methyl-1H-imidazo[4,5-c]pyridin-6-yl)amine], for which the Ki amounted to 0.483 µM.
As to `CO[C@@H]1CCN(c2nccc(Nc3cc4c(cn3)nc(CO)n4C(C)C)n2)C[C@H]1C(F)(F)F` (racemic) [Example 629, (1-Isopropyl-6-(2-((±)-(trans)-4-methoxy-3-(trifluoromethyl)piperidin-1-yl)pyrimidin-4-ylamino)-1H-imidazo[4,5-c]pyridin-2-yl)methanol], the Ki worked out at 2.96 µM.
As for `C[C@H](n1c(CO)nc2cnc(Nc3ccnc(N4CC[C@@H](O)[C@@H](F)C4)n3)cc21)C(F)(F)F` [Example 666], the figure is 0.00726 µM; as for `Cc1nn(CCO)cc1-c1cn(C(C)C)c2cc(Nc3ccnc(-c4cnn(S(=O)(=O)C5CC5)c4)n3)ncc12` [Example 437, 2-(4-(6-(2-(1-(cyclopropylsulfonyl)-1H-pyrazol-4-yl)pyrimidin-4-ylamino)-1-isopropyl-1H-pyrrolo[3,2-c]pyridin-3-yl)-3-methyl-1H-pyrazol-1-yl)ethanol], 0.00121 µM; as for `Cc1nc2cnc(Nc3ccnc(N4CCC5(OCCO5)C(F)C4)n3)cc2n1C(C)C` (stereo not drawn) [Example 653], 0.0343 µM.
The result for `CCC(C)n1cc(C(=O)NCC(F)(F)F)c2cnc(Nc3ccnc(-c4cnn(S(=O)(=O)C5CC5)c4)n3)cc21` (stereo not drawn) [Example 704] reads 0.00335 µM; that for `Cc1nc2cnc(Nc3ccnc(N4CCc5[nH]ncc5C4)n3)cc2n1C(C)C` [Example 46, N-(2-(6,7-Dihydro-1H-pyrazolo[4,3-c]pyridin-5(4H)-yl)pyrimidin-4-yl)-1-isopropyl-2-methyl-1H-imidazo[4,5-c]pyridin-6-amine], 0.0082 µM.
